Experimental data reported in patent publication US10226463B2, “Fluorouracil glycolate compound for the treatment of warts, molluscum contagiosum” (priority 2012, dated 2019).

Experiments:
[1] = systemic absorption after topical application to the lesion; format: in vivo; settings: saturation of the lesion
Excerpt: (§1) Fluorouracil Glycolate is formed by a chemical reaction between fluorouracil and glycolic acid, in an acid-base reaction under the Lowry-Bronsted model in a typical acid-base reaction. The new unique compound when formed is stable at room temperature for approximately one year. The molecular weight of the new compound is 205.72. The magic wart cream formulation, a thick cream resembling peanut butter, has a consistency designed for easy application to the lesions with a toothpick. This is to eliminate any messy, troublesome dribbling as this was a problem encountered early and then overcome on a trial and error basis, resulting in the thicker consistency. By applying the magic wart cream to only the center of the wart, and not to the edges, it focuses the target of the high-sulfur containing, amino acid rich matrix of keratin to where the fluorouracil glycolate can pool. Then it forms a depot within the small socket of the lesion. This dictates the nature of the liberation absorption and distribution the drug delivery system.

[2] = stability of the formed compound at room temperature; format: physicochemical
Excerpt: as §1

With O=C(O)CO.O=c1[nH]cc(F)c(=O)[nH]1 [Fluorouracil Glycolate] the systemic absorption [1] was “without observed systemic absorption” and the “stable at room temperature (duration)” value [2] was “approximately one”.
